Results taken from patent US6593303B1, “Anti-tumor synergetic composition” (Pharmacia & Upjohn, S.p.A., priority 1999, dated 2003).

Assays:
MX1 mammary carcinoma = assay: Antitumor activity on s.c. injected MX1 mammary carcinoma; format: in vivo, mice
[1] = test system: A549 human lung carcinoma; assay: Antitumor activity on s.c. implanted A549 human lung carcinoma
[2] = test system: H207 human ovarian carcinoma; assay: Antitumor activity on s.c. implanted H207 human ovarian carcinoma
[3] = test system: disseminated L1210 murine leukemia; assay: Antileukemic activity against disseminated L1210 murine leukemia (cells injected iv)
[4] = Taxotere alone 5 mg/kg/day iv 10,14,18
[5] = Taxotere alone 10 mg/kg/day iv 10,14,18
[6] = Table 2, CisPlatin alone 3 mg/kg/day iv q4dx2
[7] = Table 3, Paclitaxel alone 22 mg/kg/day iv +9,13,17
[8] = Table 3, Paclitaxel alone 33 mg/kg/day iv +9,13,17
[9] = Paclitaxel alone 22 mg/kg/day iv q4dx3
[10] = Paclitaxel alone 33 mg/kg/day iv q4dx3
[11] = Ia alone 1 mg/kg/day iv day +1,2
[12] = Ia alone 0.5 mg/kg/day iv 8,12,16
[13] = Ia alone 1 mg/kg/day iv 8,12,16
[14] = Table 2, Ia alone 1.5 mg/kg/day iv q4dx3
[15] = Table 3, Ia alone 2 mg/kg/day iv +7,11,15
[16] = Ia alone 1.5 mg/kg/day iv q4dx3

## CC(=O)O[C@@]12CO[C@@H]1C[C@H](O)[C@@]1(C)C(=O)[C@H](O)C3=C(C)[C@@H](OC(=O)[C@H](O)[C@@H](NC(=O)OC(C)(C)C)c4ccccc4)C[C@@](O)([C@@H](OC(=O)c4ccccc4)[C@H]21)C3(C)C [Taxotere, Docetaxel]
MX1 mammary carcinoma; [4]
  Body weight Reduction % (day): 0%
  N° of Tumor-Free Survivors: 0/8
  T.I. % (tumor inhibition): 60%
  TGD (lg) days (tumor growth delay treated - control): 1 days
  Tox (number of toxic deaths/number of mice): 0/8
MX1 mammary carcinoma; [5]
  N° of Tumor-Free Survivors: 2/8
  T.I. % (tumor inhibition): 99%
  TGD (lg) days (tumor growth delay treated - control): 42 days
  Tox (number of toxic deaths/number of mice): 0/8
MX1 mammary carcinoma; Taxotere alone 10 mg/kg/day iv 10,14,18, day 25
  Body weight Reduction % (day): 8%

## N.N.[Cl][Pt][Cl] [CisPlatin]
[1]; [6]
  N° of Tumor-Free Survivors: 0/9
  T-C N° of days (tumor growth delay, 1 g): 0 days
  T.I. % (tumor inhibition): 16%
[1]; Table 2, CisPlatin alone 3 mg/kg/day iv q4dx2, day 18
  Body weight Reduction % (day): 2(18) %

## CC(=O)O[C@H]1C(=O)[C@@]2(C)[C@H]([C@H](OC(=O)c3ccccc3)[C@]3(O)C[C@H](OC(=O)[C@H](O)[C@@H](NC(=O)c4ccccc4)c4ccccc4)C(C)=C1C3(C)C)[C@]1(OC(C)=O)CO[C@@H]1C[C@@H]2O [Paclitaxel]
[1]; [7]
  Body weight Reduction % (day): 0%
  N° of Tumor-Free Survivors: 0/8
  T-C N° of days (tumor growth delay, 1 g): 27 days
  T.I. % (tumor inhibition): 90%
  Tox (number of toxic deaths/number of mice): 0/8
[1]; [8]
  Body weight Reduction % (day): 0%
  N° of Tumor-Free Survivors: 0/8
  T-C N° of days (tumor growth delay, 1 g): 29 days
  T.I. % (tumor inhibition): 93%
  Tox (number of toxic deaths/number of mice): 0/8
[2]; [9]
  Body weight Reduction % (day): 0%
  N° of Tumor-Free Survivors: 0/7
  T-C N° of days (tumor growth delay, 1 g): 9 days
  T.I. % (tumor inhibition): 80%
  Tox (number of toxic deaths/number of mice): 0/7
[2]; [10]
  N° of Tumor-Free Survivors: 0/7
  T-C N° of days (tumor growth delay, 1 g): 12 days
  T.I. % (tumor inhibition): 86%
  Tox (number of toxic deaths/number of mice): 0/7
[2]; Paclitaxel alone 33 mg/kg/day iv q4dx3, day 13
  Body weight Reduction % (day): 3%

## CC(=O)[C@]1(O)Cc2c(O)c3c(c(O)c2[C@@H](OC2CC(N4CC4)C(OS(C)(=O)=O)C(C)O2)C1)C(=O)c1ccccc1C3=O (some centres unmarked) [Ia, 4-demethoxy-3′-deamino-3′-aziridinyl-4′-methansulfonyl daunorubicin]
[3]; [11]
  ILS % (increase in life span): 83%
  Tox (number of toxic deaths/number of mice): 0/10
MX1 mammary carcinoma; [12]
  Body weight Reduction % (day): 0%
  N° of Tumor-Free Survivors: 0/8
  T.I. % (tumor inhibition): 46%
  TGD (lg) days (tumor growth delay treated - control): 1 days
  Tox (number of toxic deaths/number of mice): 0/8
MX1 mammary carcinoma; [13]
  N° of Tumor-Free Survivors: 1/7
  T.I. % (tumor inhibition): 94%
  TGD (lg) days (tumor growth delay treated - control): 2 days
  Tox (number of toxic deaths/number of mice): 0/7
MX1 mammary carcinoma; Ia alone 1 mg/kg/day iv 8,12,16, day 17
  Body weight Reduction % (day): 5%
[1]; [14]
  N° of Tumor-Free Survivors: 0/9
  T-C N° of days (tumor growth delay, 1 g): 5 days
  T.I. % (tumor inhibition): 48%
  Tox (number of toxic deaths/number of mice): 0/9
[1]; Table 2, Ia alone 1.5 mg/kg/day iv q4dx3, day 14
  Body weight Reduction % (day): 9(14) %
[1]; [15]
  N° of Tumor-Free Survivors: 0/8
  T-C N° of days (tumor growth delay, 1 g): 9 days
  T.I. % (tumor inhibition): 69%
  Tox (number of toxic deaths/number of mice): 0/8
[1]; Table 3, Ia alone 2 mg/kg/day iv +7,11,15, day 13
  Body weight Reduction % (day): 11%
[2]; [16]
  N° of Tumor-Free Survivors: 0/7
  T-C N° of days (tumor growth delay, 1 g): 47 days
  T.I. % (tumor inhibition): 100%
  Tox (number of toxic deaths/number of mice): 0/7
[2]; Ia alone 1.5 mg/kg/day iv q4dx3, day 15
  Body weight Reduction % (day): 7%

## O=C1[O][Pt]2([NH][C@@H]3CCCC[C@H]3[NH]2)[O]C1=O [Oxaliplatinum, Oxaliplatin]
[3]; Oxaliplatinum alone 8 mg/kg/day ip day +3
  ILS % (increase in life span): 83%
